Measured values published in EP0437336B1, “Biophosphoryl hydrazines and their use as pesticides” (priority 1990, dated 1991).
Converted amounts (≈) assume the structure as drawn. Read-outs that look alike come from different tables or passages of the source.

Key:
[1] = tested on: Southern Armyworm; test: Biological Method D: Foliar Insecticidal Activity Test, Southern Armyworm test; format: in vivo, Spodoptera eridania; details: for LC50: Spodoptera eridania, Method D foliar test, Southern Armyworm
Description: (§1) Biological Method D: Foliar Insecticidal Activity Test
(§2) In evaluating the foliar insecticidal activity of the compounds of this invention against insects and mites, the following test procedures were employed.
(§3) Not all compounds were tested at each of the several concentrations stated above. Test concentrations of a compound were selected as those most likely to differentiate dose response of a particular compound toward a particular test insect.
(§4) Initial evaluations were made on one or more of the following pests:
(§5) For the Mexican Bean Beetle and Southern armyworm tests, individual lima bean (Phaseolus limeniss var. Woods' Prolific) leaves were placed on moistened pieces of filter paper in Petri dishes. The leaves were then sprayed with the test solution using a rotating turntable and allowed to dry. The dishes were then infested with 10 third instar larvae of either the Mexican Been Beetle or the Southern Armyworm. The dishes were then covered. Percent mortality was determined for each species and spray concentration at 48 and 96 hours after treatment.
(§6) The mortalities obtained in this manner were plotted on logarithmic probability paper.
(§7) The rotating turntable consists of a fixed, continuously operating spray nozzle under which targets are rotated at a fixed speed and distance. If the target is a Petri dish (such as for the bean beetle, armyworm, mite, or aphid tests), the distance from the nozzle is 38.1 cm (15 inches). If the target is a Mason jar (such as for the boll weevil test), the distance from the nozzle is 17.8 cm (7 inches). The nozzle is located 8 inches from the rotating shaft. The targets on individual platforms revolve around the shaft at 1 revolution per 20 seconds but only a brief portion of this time occurs in the spray path. Targets pass only once under the nozzle and then are removed to drying hoods.
(§8) The nozzle used is a 1/4 JCO Spraying Systems (Wheaton, Illinois) air atomizing nozzle equipped with a No. 2850 fluid cap and a No. 70 air cap. At the 68.95 x 10³ Pa gauge (10 psig) air pressure used and with liquid siphon feed, 1.89 ℓ/hr [0.5 GPH (gallons per hour)] are delivered in a round spray pattern with a 21 degree spray angle. Targets are misted with spray droplets to the point that the droplets coalesce to form a uniform thin film insufficient to drown test organisms.

[2] = tested on: southern corn rootworm, Diabrotica undecimpunctata howardi; details: at-planting soil application
[3] = tested on: Boll Weevil; test: Biological Method D: Foliar Insecticidal Activity Test, boll weevil test; format: in vivo, Anthonomous grandis
Description: as §1, §2, §3, §4
(§9) For the boll weevil test, 10 adult weevils were placed in a 0.24 ℓ (0.5 pint) glass Mason jar containing a small cube of apple. The weevils were confined to the jar by fiberglass screen mesh secured by a screw-type rim cap. The jars were then sprayed with the test solution using a rotating turntable; directing the spray through the mesh into the jar. The percentage killed was determined after forty-eight and ninety six hours.
as §6, §7, §8

[4] = tested on: Green Peach Aphid; test: Biological Method D: Foliar Insecticidal Activity Test, aphid test; format: in vivo, Myzus persicae; parameters: key: I = inactive at concentration listed
Description: as §1, §2, §3, §4
(§10) For the aphid test, infested broccoli (Brassica oleracea italica var. DiCicco) leaves containing about 50 aphids were placed in a Petri dish lid on a moistened piece of cotton. The leaves were then sprayed to thorough wetness with the test solution using a rotating turntable, held for twenty-four hours and then the percentage killed was determined.
as §6, §7, §8

[5] = tested on: Two-Spotted Spider Mite; test: Biological Method D: Foliar Insecticidal Activity Test, mite test; format: in vivo, Tetranychus urticae; parameters: key to LC50 TSM: I = inactive at concentration listed; details: for LC50 TSM: Method D foliar test, Two-Spotted Spider Mite
Description: as §1, §2, §3, §4
as §10, with “mite” for “aphid”, “bean (Phaseolus limensis” for “broccoli (Brassica oleracea italica”, “Woods Prolific) leaf discs [3.18 cm (1.25") in diameter]” for “DiCicco) leaves”, “mites” for “aphids”
as §6, §7, §8

[6] = tested on: southern corn rootworm, Diabrotica undecimpunctata howardi; test: Biological Method A: Corn Rootworm Screening Test (treated non-aggressive soil); details: soil concentration giving 90% mortality, 10 days at 27°C
[7] = tested on: Mexican Bean Beetle; test: Biological Method D: Foliar Insecticidal Activity Test, Mexican Bean Beetle test; format: in vivo, Epilachna varivestis; parameters: key to LC50 BB 96 hrs / LC50 BB 48 hrs.: I = inactive at concentration listed; details: for LC50: Epilachna varivestis
Description: as §1, §2, §3, §4, §5, §6, §7, §8

[8] = tested on: Southern Armyworm; test: Biological Method D: Foliar Insecticidal Activity Test, Southern Armyworm test; format: in vivo, Spodoptera eridania; parameters: key: I = inactive at concentration listed
Description: as §1, §2, §3, §4, §5, §6, §7, §8

[9] = tested on: Boll Weevil; test: Biological Method D: Foliar Insecticidal Activity Test, boll weevil test; format: in vivo, Anthonomous grandis; parameters: key: I = inactive at concentration listed
Description: as §1, §2, §3, §4, §9, §6, §7, §8

[10] = tested on: Green Peach Aphid; test: Biological Method D: Foliar Insecticidal Activity Test, aphid test; format: in vivo, Myzus persicae; details: foliar spray; kill after twenty-four hours
Description: as §1, §2, §3, §4, §10, §6, §7, §8

[11] = 96 hrs, read-out: LC50 AW 96 hrs
[12] = Method D foliar test, Boll Weevil
[13] = Method D foliar test, Mexican Bean Beetle, 48 hrs
[14] = Method D foliar test, Mexican Bean Beetle, 96 hrs
[15] = Method D foliar test, Mexican Bean Beetle, 96 hrs, read-out: LC50 BB 96 hrs
[16] = 48 hrs, read-out: LC50 AW 48 hrs

Row | Compound | LC50 [1, 11] [µg/mL] | secondary aggressive Method C crw LC50 ([2]; rated 17 days post-infestation) [kg/ha] | secondary aggressive Method C crw LC50 ([2]; value in brackets) [lb/acre] | LC50 GPA [4] | LC50 TSM [5] | primary nonagressive Method A crw LC90 [6] [ppm] | LC50 BB 48 hrs. [7, 13] | LC50 BB 96 hrs [7, 14] | LC50 AW 48 hrs [8] | LC50 BW 48 hrs [9] | LC50 BW 96 hrs [9] | LC50 AW 96 hrs [8] | also measured
1 | CCOP(=S)(NNP(=S)(OC)OC)OCC(C)(C)C (stereo not shown) [Compound 44] | 500 (≈ 1430 µM) | 0.56 | 0.50 | I | I | 0.37 | I | I | I | – | – | – | LC50 BW 48 hrs ([3]; Method D foliar test, Boll Weevil, 48 hrs): 380 ppm; LC50 BW 96 hrs [3, 12]: 380 ppm
2 | CCCOP(=S)(NNP(=S)(OCC)OCC(C)(C)C)OCC (stereo not shown) [Compound 45, N-(O-ethyl O-propylthiophosphoryl) N′-(O-ethyl O-neopentylthiophosphoryl) hydrazine] | 150 (≈ 382 µM) | 0.37 | 0.33 | I | I | 0.39 | I | I | I | I | – | – | LC50 BW 96 hrs [3, 12]: 150 ppm
3 | CCOP(=S)(NNP(=S)(OCC)OC(C)CC)OCC(C)(C)C (stereo not shown) [Compound 47, N-(O-ethyl O-secbutylthiophosphoryl) N′-(O-ethyl O-neopentylthiophosphoryl) hydrazine] | – | 0.38 | 0.34 | I | I | 0.09 | I | – | I | I | I | I | LC50 [7, 15]: 45 µg/mL (≈ 111 µM)
4 | CCOP(=S)(NNP(=S)(OCC)OC(C)(C(F)(F)F)C(F)(F)F)OCC(C)(C)C (stereo not shown) [Compound 48] | 150 (≈ 292 µM) | 0.63 | 0.56 | I | I | 0.40 | I | I | – | I | I | – | LC50 [1, 16]: 300 µg/mL (≈ 583 µM)
5 | CCOP(=O)(NNP(=S)(OCC)OCC(C)(C)C)SC(C)CC (stereo not shown) [Compound 52] | – | 0.78 | 0.70 | I | I | 1.1 | – | – | I | I | I | I | LC50 ([7]; Method D foliar test, Mexican Bean Beetle, 48 hrs, read-out: LC50 BB 48 hrs.): 500 µg/mL (≈ 1230 µM); LC50 [7, 15]: 150 µg/mL (≈ 369 µM)
6 | CCCOP(=S)(NNP(=O)(OCC)SC(C)CC)OCC (stereo not shown) [Compound 54] | – | – | – | I | I | 1.1 | I | I | – | I | – | I | LC50 [1, 16]: 52 µg/mL (≈ 137 µM)
7 | CCOP(=S)(NNP(=S)(OCC(C)(C)C)OCC(C)(C)C)OCC(C)(C)C (stereo not shown) [Compound 57, N-(O,O-dineopentylthiophosphoryl) N′-(O-ethyl O-neopentylthiophosphoryl) hydrazine] | – | 0.5 | 0.45 | I | I | 1.1 | I | I | I | I | I | I | –
8 | CCCCCOP(=S)(NNP(=S)(OCC)OCC)OCC (stereo not shown) [Compound 63] | – | – | – | – | – | 1.1 | – | – | – | – | – | – | AW 48 hrs LC50 ([1]; foliar spray, 48 hours after treatment): I; AW 96 hrs LC50 ([1]; foliar spray, 96 hours after treatment): I; BW 48 hrs LC50 ([3]; spray into jar, 48 hours): I; BW 96 hrs LC50 ([3]; spray into jar, 96 hours): 740 ppm; TSM LC50 ([5]; foliar spray, kill after twenty-four hours): I; GPA LC50 [10]: I; LC50 ([7]; foliar spray, 96 hours after treatment, read-out: BB 96 hrs LC50): 740 µg/mL (≈ 1960 µM)
